Assays:
OCT2 [1] = target: T1, OCT2 (Homo sapiens, UniProt O15244); test: Inhibition of OCT2-mediated [3H]MPP+ uptake in HEK-OCT2 cells; settings: for inhibition at 3 min, 20 µM / inhibition at 3 min, 200 µM: pH 7.3, probe [3H]MPP+, 50 µM
Description: (§1) For the transport assays HEK cell lines stably transfected with human OCT2 (HEK-OCT2) or the vector only (HEK-VC) were used. The HEK-OCT2 cell line was established and characterized previously. HEK-OCT2 and HEK-VC cells were seeded in poly-D-lysine (Sigma Aldrich, Taufkirchen, Germany) coated 48-well-plates at a density of 1.2 x 10^5 cells/well. […] Uptake was stopped by washing the cells three times with ice-cold uptake buffer. Afterwards, cells were lysed with 5 mM Tris buffer (pH 7.3) containing 0.1% Triton X-100. The intracellular accumulation of radioactivity was determined by liquid scintillation counting (PerkinElmer, Rodgau-Jügesheim, Germany) and protein concentration of each lysate was measured with bicinchonic acid assay (BCA Protein Assay Kit, Thermo Fisher Scientific, Waltham, MA, USA). We performed two to eight experiments each on at least two separate days, i.e., n = 4–16.

OCT2 [2] = target: T1, OCT2; test: in vitro; settings: for inhibition at 3 min, 20 µM / inhibition at 3 min, 200 µM: pH 7.3, probe [14C]metformin, 1000 µM; for inhibition at 3 min, 20 µM: % Inhibition of OCT2-dependent MF uptake at 20 µM (mean ± SEM); for inhibition at 3 min, 200 µM: % Inhibition of OCT2-dependent MF uptake at 200 µM (mean ± SEM), test drug 200 µM
Description: as §1
Experimental half-maximal inhibitory concentrations (IC50 values) were measured as the substrate uptake in the presence of increasing concentrations of test drugs. These experiments were performed as described above (three experiments each on two separate days, i.e., n = 6). IC50 values were calculated with GraphPad Prism 5.0 (GraphPad Software, San Diego, CA, USA). IC50 was estimated by a sigmoidal inhibition model and was fit to the equation V = V 0 / (1 + (I / IC50 ) ^n ) by nonlinear regression. V is the net uptake in the presence of the inhibitor, V 0 is the net uptake in the absence of the inhibitor, I is the concentration of the inhibitor and n is the slope.

[3] = test drug 20 µM, MPP+ 50 μM, 3 min, net uptake HEK-OCT2 minus HEK-VC
[4] = test drug 200 µM, MPP+ 50 μM, 3 min, net uptake HEK-OCT2 minus HEK-VC
[5] = human, test drug 20 µM, metformin 1000 μM, 3 min, net uptake HEK-OCT2 minus HEK-VC
[6] = human, metformin 1000 μM, 3 min, net uptake HEK-OCT2 minus HEK-VC

T1 sequence (O15244 whole entry): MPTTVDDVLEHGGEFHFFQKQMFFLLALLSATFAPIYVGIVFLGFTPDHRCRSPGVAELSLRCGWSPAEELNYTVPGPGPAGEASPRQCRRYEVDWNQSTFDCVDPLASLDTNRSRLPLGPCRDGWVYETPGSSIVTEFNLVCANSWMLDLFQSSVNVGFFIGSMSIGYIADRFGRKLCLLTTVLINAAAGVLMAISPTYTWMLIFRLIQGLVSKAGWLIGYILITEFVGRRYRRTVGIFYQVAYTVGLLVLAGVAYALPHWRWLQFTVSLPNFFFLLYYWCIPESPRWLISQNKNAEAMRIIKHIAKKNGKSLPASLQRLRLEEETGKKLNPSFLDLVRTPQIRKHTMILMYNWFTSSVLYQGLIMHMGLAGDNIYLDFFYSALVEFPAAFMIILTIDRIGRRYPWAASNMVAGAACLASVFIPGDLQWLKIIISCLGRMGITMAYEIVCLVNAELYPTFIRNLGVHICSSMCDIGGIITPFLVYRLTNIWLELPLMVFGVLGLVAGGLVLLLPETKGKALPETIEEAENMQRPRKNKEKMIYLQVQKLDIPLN

Row | SMILES | % Inhibition of OCT2-dependent MPP+ uptake at 20 µM (mean ± SEM) (OCT2 [1]; [3]) [%] | % Inhibition of OCT2-dependent MPP+ uptake at 200 µM (mean ± SEM) (OCT2 [1]; [4]) [%] | % Inhibition of OCT2-dependent MF uptake at 20 µM (mean ± SEM) (OCT2 [2]; human, pH 7.3) | % Inhibition of OCT2-dependent MF uptake at 200 µM (mean ± SEM) (OCT2 [2]; human, pH 7.3) | inhibition at 3 min, 20 µM (OCT2 [1]; human) [%] | inhibition at 3 min, 200 µM (OCT2 [1]; human) [%] | inhibition at 3 min, 20 µM (OCT2 [2]; [5]) [%] | inhibition at 3 min, 200 µM (OCT2 [2]; [6]) [%] | % Inhibition of OCT2-dependent MF uptake at 20 µM (mean ± SEM) (OCT2 [2]; test drug 20 µM, metformin 1000 μM, 3 min, net uptake HEK-OCT2 minus HEK-VC) [%] | % Inhibition of OCT2-dependent MPP+ uptake at 20 µM (mean ± SEM) (OCT2 [1]; human, pH 7.3) | % Inhibition of OCT2-dependent MPP+ uptake at 200 µM (mean ± SEM) (OCT2 [1]; human, pH 7.3)
1 | CN1CCN(C2=Nc3cc(Cl)ccc3Nc3ccccc32)CC1 [Clozapine] | 43.4 ± 4.7 | 84.1 ± 2.5 | 71.4 ± 1.6 | 98.7 ± 0.7 | – | – | – | – | – | – | –
2 | O=C(O)Cc1ccccc1Nc1c(Cl)cccc1Cl [Diclofenac] | 8.8 ± 8.9 | 24.0 ± 4.0 | 14.3 ± 8.8 | 59.1 ± 6.5 | – | – | – | – | – | – | –
3 | C[C@H]1O[C@@H](O[C@H]2[C@@H](O)C[C@H](O[C@H]3[C@@H](O)C[C@H](O[C@H]4CC[C@@]5(C)[C@H](CC[C@@H]6[C@@H]5CC[C@]5(C)[C@@H](C7=CC(=O)OC7)CC[C@]65O)C4)O[C@@H]3C)O[C@@H]2C)C[C@H](O)[C@@H]1O [Digitoxin] | -32.6 ± 3.8 | -32.4 ± 8.5 | 28.7 ± 7.9 | 32.8 ± 2.9 | – | – | – | – | – | – | –
4 | COc1cc2nc(N3CCN(C(=O)C4COc5ccccc5O4)CC3)nc(N)c2cc1OC (centres unmarked) [Doxazosin] | 26.7 ± 10.3 | 45.8 ± 14.0 | 48.0 ± 5.5 | 92.1 ± 1.0 | – | – | – | – | – | – | –
5 | C[C@H]1c2cccc(O)c2C(=O)C2=C(O)[C@]3(O)C(=O)C(C(N)=O)=C(O)[C@@H](N(C)C)[C@@H]3[C@@H](O)[C@@H]21 [Doxycycline] | -12.9 ± 13.1 | -16.6 ± 11.7 | -21.8 ± 1.9 | 1.9 ± 9.1 | – | – | – | – | – | – | –
6 | C[C@]12CCC(=O)C=C1[C@@H]1C[C@@H]1[C@H]1[C@@H]3[C@@H]4C[C@@H]4[C@@]4(CCC(=O)O4)[C@@]3(C)CC[C@@H]12 [Drospirenone] | – | – | – | – | 0 | 42.6 ± 1.4 | > 85 | 99.1 ± 0.7 | 88.0 ± 7.3 | – | –
7 | CNCC[C@H](Oc1cccc2ccccc12)c1cccs1 [Duloxetine] | – | – | 76.5 ± 0.9 | 98.3 ± 0.2 | – | – | – | – | – | 23.3 ± 6.0 | 86.4 ± 5.1
8 | CCOC(=O)[C@H](CCc1ccccc1)N[C@@H](C)C(=O)N1CCC[C@H]1C(=O)O [Enalapril] | 7.1 ± 7.4 | 20.2 ± 5.6 | 7.5 ± 2.3 | 34.2 ± 4.5 | – | – | – | – | – | – | –
9 | CN(C)CCC[C@@]1(c2ccc(F)cc2)OCc2cc(C#N)ccc21 [Escitalopram] | -26.3 ± 7.9 | 26.0 ± 10.1 | 62.6 ± 9.2 | 93.8 ± 3.6 | – | – | – | – | – | – | –
10 | C[C@]12CC[C@@H]3c4ccc(O)cc4CC[C@H]3[C@@H]1CC[C@@H]2O [Estradiol] | 10.6 ± 4.2 | 19.0 ± 6.5 | 57.9 ± 5.4 | 66.6 ± 2.1 | – | – | – | – | – | – | –
11 | C#C[C@]1(O)CC[C@H]2[C@@H]3CCc4cc(O)ccc4[C@H]3CC[C@@]21C [Ethinylestradiol] | 14.0 ± 8.8 | 46.8 ± 6.3 | 31.8 ± 8.1 | 62.2 ± 13.1 | – | – | – | – | – | – | –
12 | Cc1ccc(-c2ncc(Cl)cc2-c2ccc(S(C)(=O)=O)cc2)cn1 [Etoricoxib] | 2.3 ± 4.0 | 72.4 ± 2.2 | 64.1 ± 6.8 | 99.2 ± 2.7 | – | – | – | – | – | – | –
13 | O=C1[C@H](CC[C@H](O)c2ccc(F)cc2)[C@@H](c2ccc(O)cc2)N1c1ccc(F)cc1 [Ezetimibe] | – | – | – | – | -12.6 ± 12.4 | -13.2 ± 11.5 | -6.8 ± 9.7 | 0.2 ± 10 | – | – | –
14 | CCOC(=O)C1=C(C)NC(C)=C(C(=O)OC)C1c1cccc(Cl)c1Cl (centres unmarked) [Felodipine] | -8.8 ± 12.0 | -16.8 ± 10.8 | 4.9 ± 6.1 | 15.9 ± 12.1 | – | – | – | – | – | – | –
15 | CC(C)OC(=O)C(C)(C)Oc1ccc(C(=O)c2ccc(Cl)cc2)cc1 [Fenofibrate] | 12.8 ± 5.0 | 32.0 ± 5.7 | 43.0 ± 9.9 | 73.4 ± 4.7 | – | – | – | – | – | – | –
16 | CN1C(=O)CN=C(c2ccccc2F)c2cc([N+](=O)[O-])ccc21 [Flunitrazepam] | 5.1 ± 8.4 | 57.5 ± 6.6 | 74.1 ± 3.1 | 92.9 ± 0.9 | – | – | – | – | – | – | –
17 | CNCCC(Oc1ccc(C(F)(F)F)cc1)c1ccccc1 (centres unmarked) [Fluoxetine] | 20.2 ± 3.5 | 91.8 ± 2.9 | 79.0 ± 0.9 | 98.5 ± 1.2 | – | – | – | – | – | – | –
18 | OCCN1CCN(CCCN2c3ccccc3Sc3ccc(C(F)(F)F)cc32)CC1 [Fluphenazine] | 39.3 ± 7.0 | 94.3 ± 3.3 | – | 99.3 ± 0.4 | – | – | – | – | – | – | –
19 | CC(C)n1c(/C=C/C(O)CC(O)CC(=O)O)c(-c2ccc(F)cc2)c2ccccc21 (centres unmarked) [Fluvastatin] | -10.1 ± 6.1 | 5.8 ± 9.1 | -21.1 ± 10.3 | 32.5 ± 8.1 | – | – | – | – | – | – | –
20 | NCC1(CC(=O)O)CCCCC1 [Gabapentin] | – | – | 9.1 ± 8.2 | 37.6 ± 4.2 | – | – | – | – | – | -8.4 ± 9.6 | -12.5 ± 9.4
21 | COc1ccc2c3c1O[C@H]1C[C@@H](O)C=C[C@@]31CCN(C)C2 [Galantamine] | -11.7 ± 9.4 | 12.3 ± 7.0 | 51.5 ± 2.8 | 92.5 ± 1.2 | – | – | – | – | – | – | –
22 | COc1ccc(Cl)cc1C(=O)NCCc1ccc(S(=O)(=O)NC(=O)NC2CCCCC2)cc1 [Glibenclamide] | -27.7 ± 5.0 | -31.1 ± 1.7 | 38.7 ± 11.9 | 87.9 ± 3.2 | – | – | – | – | – | – | –
23 | CCC1=C(C)CN(C(=O)NCCc2ccc(S(=O)(=O)NC(=O)N[C@H]3CC[C@H](C)CC3)cc2)C1=O [Glimepiride] | 31.1 ± 7.6 | 53.8 ± 15.2 | 66.8 ± 2.9 | 65.6 ± 4.6 | – | – | – | – | – | – | –
24 | O=C(CCCN1CCC(O)(c2ccc(Cl)cc2)CC1)c1ccc(F)cc1 [Haloperidol] | -11.2 ± 5.0 | -10.6 ± 5.1 | 6.4 ± 8.9 | 66.9 ± 5.3 | – | – | – | – | – | – | –
25 | NS(=O)(=O)c1cc2c(cc1Cl)NCNS2(=O)=O [Hydrochlorothiazide] | -55.4 ± 10.2 | -36.6 ± 7.4 | -34.7 ± 16.9 | -38.6 ± 8.5 | – | – | – | – | – | – | –
26 | CC(C)Cc1ccc(C(C)C(=O)O)cc1 (centres unmarked) [Ibuprofen] | -5.8 ± 8.0 | -0.3 ± 7.5 | 23.4 ± 6.7 | 29.6 ± 4.1 | – | – | – | – | – | – | –
